Common to all, as to experiment: In vitro determination of minimum inhibitory concentration (MIC), serial dilution
Holding throughout (format): cell-based

In one series the test system is Absidia ramosa. The following applies: Lichtheimia ramosa, 336 h, pH 6, Absidia ramosa; pH 6.0, 22° C., 14 days. As for the experimental part: (§1) The antimycotic activities of the compounds were measured by in vitro determination of the minimum inhibitory concentration (MIC) for yeasts, molds and dermatophytes.
(§2) 6 dermatophytes, 2 yeasts and 4 molds were used for testing with fungi, as follows:
(§3) The minimum inhibitory concentration (MIC) was determined in serial dilution tests in test tubes. The volume of the liquid nutrient medium in each test tube was 4.5 ml.
(§4) The substances were dissolved in DMSO and diluted with sterile distilled water to 10 concentrations (100, 50, 25, 12.5, 6.25, 3.12, 1.56, 0.78, 0.39 and 0.19 μg/ml). 0.5 ml of each of these dilution steps was added to liquid nutrient medium. Thus, a constant concentration of solvent in all the nutrient media was ensured, irrespective of the active compound concentration.
(§5) A comparison solution which contained only the solvent in appropriate concentration was included when carrying out each of the tests.
(§6) The individual strains were maintained on Sabouraud/beerwort agar slants and, before they were used in a test, they underwent a passage on a modified Sabouraud liquid nutrient medium. The strains were then harvested, washed and converted into a suspension of McFaerland 3 in the case of yeasts and molds and of McFaerland 4-5 in the case of dermatophytes.
(§7) The amount of material inoculated (inoculum) was 100 μl/test tube (inoculated densities: yeasts about 10^3 /ml, molds about 10^4 /ml, dermatophytes about 10^4 /ml). The pH of the liquid nutrient medium was 6.0. After inoculation had taken place the fungi were incubated at 22° C. for 14 days.
(§8) The MIC was then determined. The concentration step at which growth was no longer visible on macroscopic inspection was used for the determination of the MIC. The comparison substance used was 1-(2-(2,4-dichlorophenyl)-2-(2,4-dichlorophenylmethoxy)ethyl)-1H-imidazole(compound A).

The test system of the next series is Aspergillus fumigatus. The settings on record: 20160 min, pH 6. The protocol:
as §1, §2, §3, §4, §5, §6, §7, §8

For a further series, the system named is Candida albicans. The following applies: 336 h, pH 6, Candida albicans, pH 6.0, 22° C., 14 days, read-out: MIC C.alb. As for the experimental part:
as §1, §2, §3, §4, §5, §6, §7, §8

Another series has as its system Candida tropicalis. The settings on record: 336 h, pH 6, Candida tropicalis, pH 6.0, 22° C., 14 days, read-out: MIC C.trop. As for the experimental part:
as §1, §2, §3, §4, §5, §6, §7, §8

The next series deals with Epidermophyton floccosum. The following applies: 336 h, pH 6, Epidermophyton floccosum, pH 6.0, 22° C., 14 days. As for the experimental part: as §1, §2, §3, §4, §5, §6, §7, §8
For the next series, the system named is Microsporum canis. The settings on record: 336 h, pH 6, Microsporum canis, pH 6.0, 22° C., 14 days. The protocol:
as §1, §2, §3, §4, §5, §6, §7, §8

In another series the test system is Microsporum gypseum. The following applies: Nannizzia gypsea, 336 h, pH 6, Microsporum gypseum; pH 6.0, 22° C., 14 days; read-out: MIC Mi.gyp. As for the experimental part:
as §1, §2, §3, §4, §5, §6, §7, §8

The subject of a further series is Mucor mucedo minus. The settings on record: Mucor mucedo, 336 h, pH 6, Mucor mucedo minus; pH 6.0, 22° C., 14 days. As for the experimental part: as §1, §2, §3, §4, §5, §6, §7, §8
The test system of the next series is Mucor mucedo plus. The following applies: Mucor mucedo, 336 h, pH 6, Mucor mucedo plus; pH 6.0, 22° C., 14 days. As for the experimental part: as §1, §2, §3, §4, §5, §6, §7, §8
Series [1] has as its system Trichophyton mentagrophytes. The following applies: 336 h, pH 6, Trichophyton mentagrophytes, pH 6.0, 22° C., 14 days. As for the experimental part: as §1, §2, §3, §4, §5, §6, §7, §8
The next series has as its system Trichophyton rubrum. The settings on record: 336 h, pH 6, Trichophyton rubrum, pH 6.0, 22° C., 14 days. As for the experimental part:
as §1, §2, §3, §4, §5, §6, §7, §8

Another series has as its system Trichophyton verrucosum. The settings on record: 336 h, pH 6, Trichophyton verrucosum, pH 6.0, 22° C., 14 days. As for the experimental part:
as §1, §2, §3, §4, §5, §6, §7, §8

Structures are written as SMILES. ≈ marks a conversion by molar mass, not a printed value.

As usually defined, the MIC is the lowest concentration that inhibits growth of the organism. For the compound `Clc1ccc(SCCNC(Cn2ccnc2)c2ccc(Cl)cc2Cl)cc1` (stereo not drawn) [Compound 34], the MIC was determined as 6.25 µg/mL (≈ 14.6 µM) with Absidia ramosa; 3.12 µg/mL (≈ 7.31 µM) in the series on Candida albicans; 3.12 µg/mL (≈ 7.31 µM) with Candida tropicalis; 0.78 µg/mL (≈ 1.83 µM) with Epidermophyton floccosum; 0.78 µg/mL (≈ 1.83 µM) in the series on Microsporum canis; 0.78 µg/mL (≈ 1.83 µM) in the series on Microsporum gypseum. For the same compound, the minimum inhibitory concentration (MIC) against Mucor mucedo minus amounted to 3.12 µg/mL (≈ 7.31 µM); with Mucor mucedo plus, 3.12 µg/mL; in [1] it was 0.78 µg/mL (≈ 1.83 µM); with Trichophyton rubrum, 0.78 µg/mL (≈ 1.83 µM); with Trichophyton verrucosum it was 0.78 µg/mL (≈ 1.83 µM). Also, the “MIC Asp.fu.” value in the series with Aspergillus fumigatus is on record as 6,25 μg/ml.

Regarding `Clc1ccc(OCCCCNC(Cn2cncn2)c2ccc(Cl)cc2Cl)cc1` (stereo not drawn) [Compound 126], the minimum inhibitory concentration (MIC) worked out at 100 µg/mL (≈ 227 µM) in the series with Absidia ramosa; 25 µg/mL (≈ 56.8 µM) in the series on Candida albicans; 12.5 µg/mL (≈ 28.4 µM) in the series on Candida tropicalis; 12.5 µg/mL (≈ 28.4 µM) in the series with Epidermophyton floccosum; 25 µg/mL (≈ 56.8 µM) with Microsporum canis; 3.12 µg/mL (≈ 7.09 µM) with Microsporum gypseum. The minimal inhibitory concentration (MIC) against Mucor mucedo minus is 25 µg/mL (≈ 56.8 µM); in the series with Mucor mucedo plus it was 12.5 µg/mL; in series [1], 50 µg/mL (≈ 114 µM); against Trichophyton rubrum, 6.25 µg/mL (≈ 14.2 µM); against Trichophyton verrucosum it was 3.12 µg/mL (≈ 7.09 µM). Moreover, the “MIC Asp.fu.” value against Aspergillus fumigatus is reported as 25,0 μg/ml.

On to `Clc1ccc(SCCCNC(Cn2ccnc2)c2ccc(Br)cc2)cc1` (stereo not drawn) [Compound 100], for which the minimum inhibitory concentration (MIC) against Absidia ramosa is 6.25 µg/mL (≈ 13.9 µM); with Candida albicans, 3.12 µg/mL (≈ 6.92 µM); with Candida tropicalis, 12.5 µg/mL (≈ 27.7 µM); in the series with Epidermophyton floccosum, 6.25 µg/mL (≈ 13.9 µM); with Microsporum canis it was 6.25 µg/mL (≈ 13.9 µM); with Microsporum gypseum, 6.25 µg/mL (≈ 13.9 µM). Moreover, the MIC in the series on Mucor mucedo minus stood at 25 µg/mL (≈ 55.5 µM); with Mucor mucedo plus, 12.5 µg/mL; in [1] it was 6.25 µg/mL (≈ 13.9 µM); with Trichophyton rubrum, 3.12 µg/mL (≈ 6.92 µM); in the series on Trichophyton verrucosum, 6.25 µg/mL (≈ 13.9 µM). Besides, the “MIC Asp.fu.” value against Aspergillus fumigatus is listed as 6,25 μg/ml.

Consider `Cc1cc(Cl)ccc1OCCCNC(Cn1cncn1)c1ccc(Cl)cc1Cl` (stereo not drawn) [Compound 68], for which the MIC with Absidia ramosa came out at 100 µg/mL (≈ 227 µM); in the series on Candida albicans, 50 µg/mL (≈ 114 µM); with Candida tropicalis, 25 µg/mL (≈ 56.8 µM); against Epidermophyton floccosum, 25 µg/mL (≈ 56.8 µM); against Microsporum canis, 12.5 µg/mL (≈ 28.4 µM); in the series on Microsporum gypseum it was 25 µg/mL (≈ 56.8 µM). The minimum inhibitory concentration (MIC) is 12.5 µg/mL (≈ 28.4 µM) in the series on Mucor mucedo minus; 6.25 µg/mL with Mucor mucedo plus; 25 µg/mL (≈ 56.8 µM) in [1]; 50 µg/mL (≈ 114 µM) in the series with Trichophyton rubrum; 6.25 µg/mL (≈ 14.2 µM) against Trichophyton verrucosum. In addition, the “MIC Asp.fu.” value against Aspergillus fumigatus came out at 100 µg/mL (≈ 227 µM).

Consider `Clc1ccc(OCCNC(Cn2cncn2)c2ccc(Cl)cc2Cl)cc1` (stereo not drawn) [Compound 14], for which the MIC against Absidia ramosa came to 100 µg/mL (≈ 243 µM); in the series with Candida albicans it was 12.5 µg/mL (≈ 30.4 µM); in the series with Candida tropicalis it was 12.5 µg/mL (≈ 30.4 µM); in the series with Epidermophyton floccosum it was 3.12 µg/mL (≈ 7.58 µM); in the series with Microsporum canis it was 12.5 µg/mL (≈ 30.4 µM); in the series on Microsporum gypseum, 6.25 µg/mL (≈ 15.2 µM). Further, the MIC was determined as 6.25 µg/mL (≈ 15.2 µM) against Mucor mucedo minus; 12.5 µg/mL in the series with Mucor mucedo plus; 12.5 µg/mL (≈ 30.4 µM) in [1]; 6.25 µg/mL (≈ 15.2 µM) in the series on Trichophyton rubrum; 12.5 µg/mL (≈ 30.4 µM) in the series on Trichophyton verrucosum. For the same compound, in the series on Aspergillus fumigatus, the “MIC Asp.fu.” value worked out at 100 µg/mL (≈ 243 µM).

For `Clc1ccc(SCCCCCNC(Cn2ccnc2)c2ccc(Cl)cc2Cl)cc1` (stereo not drawn) [Compound 132], the MIC against Absidia ramosa came out at 6.25 µg/mL (≈ 13.3 µM); with Candida albicans it was 6.25 µg/mL (≈ 13.3 µM); in the series on Candida tropicalis it was 3.12 µg/mL (≈ 6.65 µM); against Epidermophyton floccosum, 0.78 µg/mL (≈ 1.66 µM); with Microsporum canis, 12.5 µg/mL (≈ 26.7 µM); in the series with Microsporum gypseum, 3.12 µg/mL (≈ 6.65 µM). Further, the minimal inhibitory concentration (MIC) in the series with Mucor mucedo minus was 3.12 µg/mL (≈ 6.65 µM); in the series on Mucor mucedo plus, 0.78 µg/mL; in [1], 0.78 µg/mL (≈ 1.66 µM); in the series with Trichophyton rubrum, 3.12 µg/mL (≈ 6.65 µM); in the series with Trichophyton verrucosum, 6.25 µg/mL (≈ 13.3 µM). In addition, the “MIC Asp.fu.” value against Aspergillus fumigatus is reported as 6,25 μg/ml.

For the origin of these results see patent US4812465A, “Triazole derivatives for use as antimycotic agents” (CL Pharma Aktiengesellschaft, priority 1986, dated 1989).
